# Results taken from US6255089A (priority 1998, dated 2001).
# Like-named read-outs stand apart in the source and are kept apart here.
# B1: ser→phe mutant 5-HT2C receptors: rat 5-HT2C receptor with serine #312 mutated to phenylalanine (protein, UniProt P08909 33-460, looked up, variant S312F)
# 5-hydroxytryptamine receptor …: IVTDTFNSSDGGRLFQFPDGVQNWPALSIVVIIIMTIGGNILVIMAVSMEKKLHNATNYFLMSLAIADMLVGLLVMPLSLLAILYDYVWPLPRYLCPVWISLDVLFSTASIMHLCAISLDRYVAIRNPIEHSRFNSRTKAIMKIAIVWAISIGVSVPIPVIGLRDESKVFVNNTTCVLNDPNFVLIGSFVAFFIPLTIMVITYFLTIYVLRRQTLMLLRGHTEEELANMSLNFLNCCCKKNGGEEENAPNPNPDQKPRRKKKEKRPRGTMQAINNEKKAFKVLGIVFFVFLIMWCPFFITNILSVLCGKACNQKLMEKLLNVFVWIGYVCSGINPLVYTLFNKIYRRAFSKYLRCDYKPDKKPPVRQIPRVAATALSGRELNVNIYRHTNERVARKANDPEPGIEMQVENLELPVNPSNVVSERISSV
# Key:
# native 5-HT2A receptor [1] = biological target: T1, native 5-HT2A receptor (Rattus norvegicus, UniProt P14842); type: cell-based; conditions: 10 μM 5-HT
# T1 construct: expressed in transfected cells; host or cells: COS-7
# T1 sequence (P14842 whole entry): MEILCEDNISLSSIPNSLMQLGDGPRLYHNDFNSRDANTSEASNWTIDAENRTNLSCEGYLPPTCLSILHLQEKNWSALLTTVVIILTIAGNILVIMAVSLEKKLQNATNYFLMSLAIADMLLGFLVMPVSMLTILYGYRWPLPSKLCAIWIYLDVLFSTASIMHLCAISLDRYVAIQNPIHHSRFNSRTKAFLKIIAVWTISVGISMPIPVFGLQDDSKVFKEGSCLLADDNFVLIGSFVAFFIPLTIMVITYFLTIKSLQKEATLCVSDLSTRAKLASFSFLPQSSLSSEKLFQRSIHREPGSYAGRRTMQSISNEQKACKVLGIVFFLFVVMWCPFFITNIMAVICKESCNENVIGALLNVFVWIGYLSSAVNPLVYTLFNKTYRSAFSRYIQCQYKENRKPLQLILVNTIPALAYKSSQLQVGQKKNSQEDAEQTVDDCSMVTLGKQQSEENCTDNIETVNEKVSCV
# [2] = biological target: T2, cys→lys mutant 5-HT2A receptor (Rattus norvegicus, UniProt P14842, C322K); type: binding; parameters: expressed in transfected cells; host or cells: COS-7; conditions: for change in binding affinity at the mutant 5-HT2A receptor: cys→lys mutant versus native, 3H-ketanserin
# T2 sequence (P14842 whole entry C322K): as the sequence (P14842 whole entry) above, with C322K counted along it
# Protocol: Saturation experiments were performed by using [^3 H]ketanserin (0.1-5.0 nM).
# native 5-HT2A receptor [3] = biological target: T1, native 5-HT2A receptor; type: binding; conditions: 3H-ketanserin saturation
# Protocol: (§1) Bmax values were determined by a BCA assay.
# (§2) BMAX values were determined by a BCA assay.
# [4] = biological target: T2, cys→lys mutant 5-HT2A receptor; conditions: saturation analysis
# Protocol: as §1, §2
# 5-HT2C receptor = type: binding, rat; conditions: COS-7; native versus ser→lys and ser→phe mutant
# [5] = test system: 5-HT2A cys→lys mutant receptor; conditions: inverse agonism; for reduction of constitutively activated IP basal activity: mutated 5-HT2A cys→lys receptor
# [6] = test system: basal levels of IP production; type: cell-based, rat; conditions: COS-7, no agonist
molecule,measurement,setting,value
"NCCc1c[nH]c2ccc(O)cc12 [5-HT, serotonin]",additional increase in IP production upon addition of 5-HT,native 5-HT2A receptor [1],additional increase in IP production
COc1cc(CC(C)N)c(OC)cc1Br (stereo not shown) [DOB],fold increase in affinity (Ki),"[2]; rat, cos-7 cells",7.4 fold
COc1cc(CC(C)N)c(OC)cc1C (stereo not shown) [DOM],fold increase in affinity (Ki),[2]; cys→lys mutant versus native 5-HT2A receptor,5 fold
O=C(c1ccc(F)cc1)C1CCN(CCn2c(=O)[nH]c3ccccc3c2=O)CC1 [^3 H-ketanserin],BMAX,native 5-HT2A receptor [3],193 ± 37 fmol/mg
same,"KD of 3H-ketanserin, native versus mutant",[4],did not differ between the native and mutant receptors
CN1C[C@@H](NS(=O)(=O)N(C)C)C[C@@H]2c3cccc4c3c(cn4C)C[C@H]21 [^3 H-mesulergine],5-HT2C receptor density (3H-mesulergine saturation),5-HT2C receptor,greater in cells transfected with native receptors than in cells transfected with either the ser→lys or the ser→phe mutant receptors
O=C(c1ccc(F)cc1)C1CCN(CCn2c(=O)[nH]c3ccccc3c2=O)CC1 [ketanserin],decrease of the constitutive IP stimulation,"[5]; COS-7, 5-HT2A cys→lys receptor",80%
same,change in binding affinity at the mutant 5-HT2A receptor,[2],no change in binding affinity
CN1CCN(C2=Nc3ccccc3Oc3ccc(Cl)cc32)CC1 [loxapine],reduction of constitutively activated IP basal activity,[5],reduce the constitutively activated IP basal activity
CN1CCN2c3ccccc3Cc3ccccc3C2C1 (stereo not shown) [mianserin],change in binding affinity at the mutant 5-HT2A receptor,[2],apparent decease in the binding affinity
O=C(CCCN1CCC2(CC1)C(=O)NCN2c1ccccc1)c1ccc(F)cc1 [spiperone],reduction of constitutively activated IP basal activity,[5],reduce the constitutively activated IP basal activity
same,change in binding affinity at the mutant 5-HT2A receptor,[2],no change in binding affinity
B1,fold increase in basal levels of IP production compared with cells expressing native 5-HT2C receptors,[6],2 fold
